Measurements taken from patent US12263248B2, “Compounds and compositions for intracellular delivery of therapeutic agents” (ModernaTX, Inc., priority 2018, dated 2025).

What was measured:
[1] = Particle size and polydispersity index of nanoparticle compositions (Zetasizer Nano ZS); type: physicochemical; conditions: Table 1A; for Size (nm): lipid:DSPC:cholesterol:PEG-DMG 50:10:38.5:1.5 mol %
Outline: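 In 1×PBS, the compositions were sized on a Zetasizer Nano ZS, which also reported their polydispersity index.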

luciferase (Luc) mRNA [2] = assay: Luc expression, whole body bioluminescence after intravenous administration to mice; type: in vivo; conditions: for Total Flux 3 hours / Total Flux 6 hours / Total Flux 24 hours: mice, i.v., 0.5 mg/kg, Luc mRNA; for Lipid/MC3 AUC / AUC (p/s * h): Table 3D, intravenous; for Fold increase in total body Luc Flux relative to MC3 at 6 h: Table 3A
Outline: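 Luc mRNA nanoparticle formulations given intravenously to mice (n=6) at 0.5 mg/kg; whole-body bioluminescence imaged at 3, 6 and 24 h. CD-1 mice received IP D-luciferin (200 μL of 15 mg/mL) 15 min before imaging; total flux quantified by region of interest.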

[3] = Encapsulation efficiency of RNA (QUANT-IT RIBOGREEN RNA assay); type: physicochemical; conditions: Table 1A
Outline: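 RiboGreen fluorescence (ex ~480, em ~520 nm) compared between intact samples and Triton X-100-lysed samples after 15 min at 37 °C in TE buffer, pH 7.5. Percent free RNA is the blank-corrected intact/disrupted ratio.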

luciferase (Luc) mRNA [4] = assay: Luc expression in liver, lung, spleen and femur 6 hours after intravenous administration; type: in vivo; conditions: mice, intravenous, 0.5 mpk
Outline: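 LNP-formulated mRNA given IV to mice (n=3) at 0.5 mpk; at 6 h, bioluminescence imaged ex vivo 15 min after IP D-luciferin (15 mg/mL, 200 μL), organs imaged within 25 min. Values are total flux by region of interest.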

[5] = Apparent (surface) pKa of the LNP formulation (TNS assay); type: physicochemical; conditions: Table 1A
Outline: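 LNP (0.04 mg/mL mRNA) mixed with TNS reagent in 21 buffers spanning about pH 3-12, in triplicate; fluorescence plotted against pH as sigmoidal curve. Apparent pKa taken as […] curve inflection point; validated in 1× PBS and 20 mM Tris w/8% sucrose.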

Row | Structure (SMILES) | PDI [1] | Size (nm) [1] [nm] | 6 h Lipid/MC3 Avg. Luc Expression (luciferase (Luc) mRNA [2]; Table 3C, i.v. administration) | Fold increase AUC Lipid/MC3 (luciferase (Luc) mRNA [2]; Table 3C, i.v. administration) | AUC (h * p/s) (luciferase (Luc) mRNA [2]; Table 3C, i.v. administration, Luc) | Total Flux 3 hours (luciferase (Luc) mRNA [2]) | Total Flux 6 hours (luciferase (Luc) mRNA [2]) | Total Flux 24 hours (luciferase (Luc) mRNA [2]) | EE (%) [3] [%] | Total Flux Liver (luciferase (Luc) mRNA [4]) | Total Flux Lung (luciferase (Luc) mRNA [4]) | Total Flux Spleen (luciferase (Luc) mRNA [4]) | pKa [5] | Lipid/MC3 AUC (luciferase (Luc) mRNA [2]) | AUC (p/s * h) (luciferase (Luc) mRNA [2]; Luc) | Fold increase in total body Luc Flux relative to MC3 at 6 h (luciferase (Luc) mRNA [2]; i.v. administration)
1 | CCCCCCCCC(CCCCCC)C(=O)OCCCCCCCCCN(CCO)CCCCCCCCCOC(=O)C(CCCCCC)CCCCCCCC (stereo not shown) [Compound 133, ((2-Hydroxyethyl)azanediyl)bis(nonane-9,1-diyl) bis(2-hexyldecanoate)] | 0.098 | 66.0 | 4.02 | 4.39 | 3.62E+11 | 3.32E+10 | 2.93E+10 | 4.74E+08 | 91.48 | 2.94E+09 | 3.18E+06 | 1.77E+07 | 6.38 | – | – | –
2 | CCCCCCCCCOC(=O)CCCCCCCN(CCO)CCN(CCO)CCCCCCCC(=O)OC(CCCCCCCC)CCCCCCCC [Compound 159, Heptadecan-9-yl 8-((2-hydroxyethyl)(2-((2-hydroxyethyl)(8-(nonyloxy)-8-oxooctyl)amino)ethyl)amino)octanoate] | 0.190 | 75.9 | – | – | – | 3.32E+06 | 1.20E+07 | 4.98E+05 | 99.29 | 1.13E+06 | 2.17E+05 | 7.24E+05 | 7.873 | <0.01 | 1.355E+008 | –
3 | CCCCCCCCC(CCCCCCCC)OC(=O)CCCCCCCN(CCO)CCCCCC(=O)OC1CCC(CCCCC)CC1 (stereo not shown) [Compound 68, Heptadecan-9-yl 8-((2-hydroxyethyl)(6-oxo-6-((4-pentylcyclohexyl)oxy)hexyl)amino)octanoate] | 0.14 | 76.8 | – | – | – | 5.22E+10 | 8.16E+10 | 2.15E+09 | 97.7 | 8.42E+09 | 3.98E+07 | 6.69E+07 | 6.69 | – | – | 3.68
4 | CCCCCCCCC(CCCCCCCC)OC(=O)CCCCCCCN(CCO)CCCC(=O)OC1CCC(CCCCC)CC1 (stereo not shown) [Compound 67, Heptadecan-9-yl 8-((2-hydroxyethyl)(4-oxo-4-((4-pentylcyclohexyl)oxy)butyl)amino)octanoate] | 0.13 | 77 | – | – | – | 4.24E+10 | 4.62E+10 | 4.51E+08 | 98 | 3.60E+09 | 1.68E+07 | 2.55E+07 | 6.38 | – | – | 2.08
5 | CCCCCCCCC(CCCCCCCC)OC(=O)CCCCCCCN(CCO)CCCCCCCC(=O)OC(C)(C)C [Compound 155, tert-Butyl 8-((8-(heptadecan-9-yloxy)-8-oxooctyl)(2-hydroxyethyl)amino)octanoate] | 0.240 | 208.3 | – | – | – | 2.49E+09 | 1.15E+10 | 1.99E+08 | 37.36 | 8.58E+08 | 1.00E+07 | 2.77E+08 | 6.576 | 0.66 | 1.266E+011 | –
6 | CCCCCCCCC(C)OC(=O)CCCN(CCO)CCCCCCCC(=O)OC(CCCCCCCC)CCCCCCCC (stereo not shown) [Compound 70, Heptadecan-9-yl 8-((4-(decan-2-yloxy)-4-oxobutyl)(2-hydroxyethyl)amino)octanoate] | 0.15 | 73.7 | – | – | – | 4.70E+10 | 2.49E+10 | 9.27E+08 | 97.5 | 8.55E+08 | 6.32E+06 | 2.06E+06 | 6.51 | – | – | –
7 | CCCCCCCCCOC(=O)CCCCCCCN(CCO)CCCCCCC/C=C\C(CCCCCCCC)CCCCCCCC [Compound 152, Nonyl (Z)-8-((2-hydroxyethyl)(10-octyloctadec-8-en-1-yl)amino)octanoate] | 0.072 | 62.6 | – | – | – | 1.56E+09 | 2.45E+09 | 4.95E+07 | 99.29 | 1.43E+08 | 3.16E+05 | 6.63E+06 | 6.465 | 0.15 | 2.855E+010 | –
8 | CCCCCCCCC(CCCCCCCC)OC(=O)CCCCCCCN(CCO)CCCC(=O)OC(CCCCCC)CCCCCCCC (stereo not shown) [Compound 73, Heptadecan-9-yl 8-((2-hydroxyethyl)(4-oxo-4-(pentadecan-7-yloxy)butyl)amino)octanoate] | 0.13 | 59.2 | – | – | – | 8.10E+09 | 1.07E+10 | 1.27E+08 | 95.7 | 7.93E+08 | 6.17E+06 | 9.45E+06 | 5.95 | – | – | 0.48
9 | CCCCCCCCCOC(=O)CCCCCCCN(CCO)CCCCCCCC(=O)OC(C)CCCCCCCC (stereo not shown) [Compound 36, decan-2-yl 8-((2-hydroxyethyl)(8-(nonyloxy)-8-oxooctyl)amino) octanoate] | 0.17 | 163.5 | – | – | – | 6.97E+07 | 1.72E+08 | 4.44E+05 | 81.45 | 2.65E+07 | 5.82E+05 | 6.14E+07 | 7.38 | – | – | 0.004
